Data as given in patent US11576914B2, “Drug for treating or preventing disorder caused by TGF-β signaling, and application thereof” (THE DOSHISHA, priority 2017, dated 2023).
“Also recorded” adds a separate entry of the source.

Tests used:
[1] = test system: cleaved caspase-3 and PARP; test: Western blot of caspase 3 and PARP in iFECD stimulated with TGF-β2; assay type: cell-based, human; details: 0.1 μM; for cleaved caspase-3 and PARP expression: 100 ng/ml TGF-β2, 24 hours; for caspase activity: TGF-β2
Protocol: (§1) The medium was removed from the culture dish of cultured disease model cells, and the disease model cells were supplemented with 1×PBS (−) that was preheated to 37° C., followed by washing. This operation was repeated twice. The cells were supplemented with 1×PBS (−) again and incubated for 5 minutes at 37° C. (5% CO2). After the PBS (−) was removed, the cells were supplemented with 0.05% Trypsin-EDTA (nacalai tesque, 32778-34) and incubated for 5 minutes at 37° C. (5% CO2). The cells were then suspended in a medium, and collected by centrifugation at 1500 rpm for 3 minutes. Medium: DMEM (nacalai tesque, 08456-36)+10% FBS (Biowest, S1820-500)+1% P/S (nacalai tesque, 26252-94).
The Fuchs' endothelial corneal dystrophy patient-derived immortalized corneal endothelial cells were seeded in a 6-well plate at a rate of 1.5×10^5 cells per well and cultured at 37° C. (5% CO2) for 48 hours. DMEM+10% FBS+1% P/S was used as the medium. After 48 hours, the medium was removed, and SB203580 (Cayman, 13067), PH-797804 (Selleck Chemicals, S2726), VX-702 (Selleck Chemicals, 56005) and AKP-001 were added to DMEM+2% FBS+1% P/S so that all the final concentration was 0.1 μM, followed by culturing as 24-hour pretreatment.
After 24 hours, the medium was removed, and SB203580 (Cayman, 13067), PH-797804 (Selleck Chemicals, S2726), VX-702 (Selleck Chemicals, 56005) and AKP-001, together with 100 ng/ml recombinant human TGF-β2 (R & D systems, RND302-B2-002), were added to DMEM+2% FBS+1% P/S so that all the final concentration was 0.1 μM, followed by culturing for 24 hours. After 24 hours, the protein was subjected to Western blotting according to the following procedure to evaluate the effect on apoptosis.
The medium was collected on ice to collect free and dead cells as well. The solution obtained from washing the cells twice with 1×PBS (−) was also collected, followed by centrifugation of 800 g at 4° C. for 5 minutes. The supernatant was discarded to obtain precipitates. The washed cells were supplemented with a protein extraction buffer (RIPA; 50 mM Tris-HCl (pH 7.4), 150 mM NaCl, 1 mM EDTA, 0.1% SDS, 0.5% DOC, 1% NP-40) on ice to extract proteins. The precipitates from centrifuging the free and dead cells were also subsequently suspended together for extraction. The collected solution was pulverized three times for 30 seconds in cold water with a sonication device (BIORUPTOR, TOSHO DENKI) and centrifuged for 10 min at 4° C. at 15000 rpm to collect the supernatant of proteins.
Eight μg of the extracted protein was separated by SDS-PAGE and transferred onto a nitrocellulose membrane. A rabbit anti-Caspase 3 antibody (Cell Signaling, 9662), rabbit anti-PARP antibody (Cell Signaling, 9542), and mouse anti-GAPDH antibody (MBL, M171-3) were used as the primary antibodies. A peroxidase-labeled anti-rabbit antibody and anti-mouse antibody (GE Healthcare Biosciences, NA931V, NA934V) were used as the secondary antibodies. For the primary antibodies, the rabbit anti-PARP antibody was diluted 1000-fold, the rabbit anti-Caspase 3 antibody was diluted 1000-fold, and the mouse anti-GAPDH antibody was diluted 3000-fold. Further, the secondary antibody was diluted 5000-fold. Chemi Lumi ONE Ultra (Nacalai Tesque, 11644-40) was used for detection. The detected band strength was analyzed with a lumino image analyzer LAS-4000 mini (Fuji Film) and ImageQuant™ software (GE Healthcare).

[2] = test system: Fuchs' endothelial corneal dystrophy patient-derived immortalized corneal endothelial cells; test: Cell damage inhibitory effect on iFECD stimulated with TGF-β2 (phase contrast microscope); assay type: cell-based, human; details: for disorder in the corneal endothelial cells: 1 μM and 3 μM, iFECD, pretreatment, TGF-β2 stimulation; for cell damage inhibitory effect for the corneal endothelial cells: at sub-μM
Protocol: as §1, with “in which Fuchs' endothelial corneal dystrophy patient-derived immortalized corneal endothelial cells (hereinafter, referred to as” for “of cultured”, “cells) were being cultured,” for “cells,”, “the” for “the disease model”, “and were washed.” for “followed by washing.”, “minutes.” for “minutes. Medium:”, “26252-94) was used as the medium. The disease model cells were seeded in a 6-well plate at a rate of 1.5×10^5 cells per well and cultured at 37° C. (5% CO2) for 48 hours. DMEM+10% FBS+1% P/S was used as the medium.” for “26252-94).”
After 48 hours, the medium was removed, and AKP-001, SB203580 (Cayman, 13067), PH-797804 (Selleck Chemicals, S2726) and VX-702 (Selleck Chemicals, 56005) were added to DMEM+2% FBS+1% P/S so that the final concentration was 0.01, 0.03, 0.1, 0.3, 1, 3, 10 and 30 μM, followed by culturing as 24-hour pretreatment. After 24 hours, the medium was removed, and AKP-001, 5B203580 (Cayman, 13067), PH-797804 (Selleck Chemicals, S2726), or VX-702 (Selleck Chemicals, S6005), together with 100 ng/ml Recombinant Human TGF-β2 (R&D systems, RND302-B2-002), were added to DMEM+2% FBS+1% P/S so that the final concentration was 0.01 μM, 0.03 μM, 0.1 μM, 0.3 μM, 1 μM, 3 μM, 10 μM, and 30 μM, followed by culturing for 24 hours. After 24 hours, cell damage was evaluated by observation with a phase contrast microscope. As a control, immortalized corneal endothelial cells that were not stimulated with TGF-β were used.

corneal endothelium = test: Histological analysis of the corneal endothelium after instillation; assay type: in vivo; details: 10 μM into the anterior chamber, after 24 hours, positive control
Source text: Rabbits were euthanized, and then their eyes were removed and histologically analyzed. Expression of markers related to corneal endothelial functions was confirmed by immunostaining. The sclerocornea fragments were fixed with 0.5% paraformaldehyde and then blocked with 1% bovine serum albumin. As primary antibodies, ZO-1 antibody (Life Technologies) and N-cadherin antibody (BD Biosciences), which are indicators of the barrier function of corneal endothelial cells, and Na^+/K^+-ATPase antibody (MILLIPORE), which is an indicator of pump functions, were added, followed by standing at 4° C. overnight. […] Further, nuclear staining was performed using DAPI (Dojindo). To observe the cell morphology, actin was stained using Phalloidin (Life Technologies). The stained sclerocornea fragments were mounted in slide glasses and observed using a confocal fluorescence microscope (TCS SPE, Leica).
In addition, rabbits were euthanized, and then their eyes were removed. To assess cell death, the sclerocornea fragments were stained with Annexin V (Zymed Laboratories) and PI (Zymed Laboratories), fixed with 0.5% paraformaldehyde, and nuclear stained with DAPI (Dojindo). The stained sclerocornea fragments were mounted in slide glass and observed using a confocal fluorescence microscope (TCS SPE, Leica). Staurosporine (10 μM, Merck Millipore) was administered into the anterior chamber of a rabbit eyeball, and after 24 hours, it was used as a positive control.

Structure (SMILES)	cleaved caspase-3 and PARP expression [1]	caspase activity [1]	disorder in the corneal endothelial cells [2]	cell damage inhibitory effect for the corneal endothelial cells [2]	Annexin V and PI staining (cell death) (corneal endothelium)
CNC(=O)c1ccc(C)c(-n2c(C)cc(OCc3ccc(F)cc3F)c(Br)c2=O)c1 [PH-797804]	confirmed similarly	not inhibited	effectively suppressed	not observed; also recorded: No inhibitory effects	–
NC(=O)c1ccc(N(C(N)=O)c2c(F)cccc2F)nc1-c1ccc(F)cc1F [VX-702]	confirmed similarly	not inhibited	effectively suppressed	not observed; also recorded: No inhibitory effects	–
CN[C@@H]1C[C@H]2O[C@@](C)([C@@H]1OC)n1c3ccccc3c3c4c(c5c6ccccc6n2c5c31)C(=O)NC4 [staurosporine, reference compound]	–	–	–	–	Staining with Annexin V or PI was observed
